Measurements: patent publication US20210017607A1, “Methods of Predicting Responsiveness to Cancer Therapies” (The University of Chicago, priority 2019, published 2021)

Tested on: Myc-CAP-PTEN^−/− cells
Experiment: Myc-CAP-PTEN−/− cells in vitro (western blotting, cytokine array)
Assay type: cell-based, mouse
Conditions: 24 hours
Method: FIGS. 35A-35D. […] (35A) Myc-CAP-PTEN^−/− cells were treated with copanlisib […] (IC90 concentration) in vitro for 24 hours, and protein extracts were harvested for western blotting analysis with the indicated antibodies to analyze PI3K activation. (35B) Supernatants from (35A) were harvested for cytokine array profiling. n=3 independent in vitro experiments. (35C) Mice bearing Myc-CAP-PTEN^−/− established syngeneic tumors (200 mm^3) were treated with copanlisib (14 mg/kg, every other day, until tumors reached 2000 mm^3). Tumor volumes were monitored daily and graphed. (35D) At the end of treatment, tumors were analyzed by flow cytometry for tumor infiltrating immune cell subsets. n=5 mice per group.
FIGS. 49A and 49B. PTEN-deficient cancer cells have diminished STING expression that can be restored by […] and pan-PI3K inhibitors. (49A) Isogenic MC38, Myc-CAP, ID8, and TRAMP cells (−/+ PTEN) were analyzed for STING mRNA and protein expression by qRT-PCR and western blotting, respectively. (49B) Myc-CAP-PTEN^−/− cells were treated with GSK′771 (PI3Kβ-selective inhibitor, 1 μM) or BKM120 (pan-PI3K inhibitor, 1 μM) for 24 hours, and proteins were analyzed for STING expression and PI3K activation by western blotting.
Cancer Cell Lines and in vitro drug treatments. Transgenic c-myc^hi prostate tumor derived cell line, Myc-CAP and TRAMPC1, ovarian cancer cell line ID8 and murine colon adenocarcinoma line MC38 were obtained from the American Type Culture Collection (ATCC) and passaged in either 1×RPMI/1×DMEM (with phenol) or 1×DMEM (without phenol red) containing 10% fetal bovine serum, 1% penicillin-streptomycin, 2% L-glutamine and 1×ITS. ID8^pten−/−p53−/−cells were a kind gift from Dr. Ian McNeish (Imperial College, London). For generation of STING over expressing cell lines −Myc-CAP^pten+/+ and ID8^pten−/− cells were transfected with commercial available plasmid (DC-Mm22462-SH02, Genecoepia™), sorted and expanded as per protocol. […]

Question: How did the “STING expression (western blotting)” value (1 μM) turn out when `Nc1cc(C(F)(F)F)c(-c2cc(N3CCOCC3)nc(N3CCOCC3)n2)cn1` [buparlisib] was run?
Answer: restored

Question: With `COc1c(OCCCN2CCOCC2)ccc2c1N=C(NC(=O)c1cnc(N)nc1)N1CCN=C21` [copanlisib] as the compound, how does the CXCL1 production (copanlisib 100 nm, cytokine array) read?
Answer: decreasing CXCL1 production
